The values below come from patent publication US9708312B2, “Dihydropyrimidinoisoquinolinones and pharmaceutical compositions thereof for the treatment of inflammatory disorders (GPR84 antagonists)” (GALAPAGOS NV, priority 2012, dated 2017).

What is called IC50 is the point on the concentration scale where inhibition reaches its midpoint. Higher therefore signals weaker potency in that assay.

The target of this test is T1, GPR84 (Homo sapiens, UniProt Q9NQS5).
T1 construct: expressed in transfected cells
T1 sequence (Q9NQS5 whole entry): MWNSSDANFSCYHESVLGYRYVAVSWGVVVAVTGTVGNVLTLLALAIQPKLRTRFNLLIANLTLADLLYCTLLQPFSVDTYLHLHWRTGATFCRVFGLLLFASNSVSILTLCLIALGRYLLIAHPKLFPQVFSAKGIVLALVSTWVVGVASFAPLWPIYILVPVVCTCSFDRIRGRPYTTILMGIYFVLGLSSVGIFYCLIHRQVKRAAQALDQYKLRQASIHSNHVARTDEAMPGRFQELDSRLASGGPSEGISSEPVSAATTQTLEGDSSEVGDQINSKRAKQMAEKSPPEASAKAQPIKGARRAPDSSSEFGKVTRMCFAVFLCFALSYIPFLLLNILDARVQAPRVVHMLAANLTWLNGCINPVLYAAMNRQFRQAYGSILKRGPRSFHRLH
Kind of test: GPR84 [35S]GTPγS binding assay, HEPES buffer. The class given is biochemical. As to conditions: 3,3′ di indolylmethane at EC80, membranes from stable cell line over expressing GPR84. The protocol: 1.1. Cell Based Assay: GTp-γ S Binding Assay.
The following assay can be used for determination of GPR84 activation.
The assay is performed in a 96 well plate where the following reagents are added. […] In a last step, 30 μL of a mixture consisting of membranes-GTPγS-SpA beads is added [mixture consists of 20 μg/well membranes derived from stable cell line over expressing GPR84 (membranes are pre-incubated with 0.1 μM GDP for 15 min at 4° C.), 0.1 nM [^35S]GTPγS (Perkin Elmer, NEG030) and 0.5 mg/well PVT-WGA SpA beads (Perkin Elmer, RPNQ0001)]. All components are diluted in assay buffer containing 20 mM HEPES pH 7.4; 5 mM MgCl2; 250 mM NaCl; 0.05% BSA; 75 ug/mL saponin Reactions are incubated for 90 min at room temperature followed by centrifugation at 2000 rpm during 15 min. Plates are read on a Topcount reader (Perkin Elmer) immediately after centrifugation (readout time, 1 min/well).
In general terms: Binding of GTPγS marks nucleotide exchange on a G protein.

Turning to `N#CCNc1ccc2c(c1)CCn1c-2cc(OCC2COc3ncccc3O2)nc1=O` (stereo not shown) [compound 151, [2-(2,3-dihydro-[1,4]dioxino[2,3-b]pyridin-2-ylmethoxy)-4-oxo-6,7-dihydro-4H-pyrimido[6,1-a]isoquinolin-9-ylamino]-acetonitrile], the IC50 lay within 100 to 500 nM.
As for `O=c1nc(OCC2COc3ccccc3O2)cc2n1CCc1cc(OCCN3CCOCC3)ccc1-2` (stereo not shown) [compound 71, 2-(2,3-dihydro-benzo[1,4]dioxin-2-ylmethoxy)-9-(2-morpholin-4-yl-ethoxy)-6,7-dihydro-pyrimido[6,1-a]isoquinolin-4-one], the figure is 0.01 to 100 nM.
As for `O=c1nc(OCC2CCCO2)cc2n1CCc1cc(OCc3ccncc3)ccc1-2` (stereo not shown) [compound 13, 9-(pyridin-4-ylmethoxy)-2-(tetrahydro-furan-2-ylmethoxy)-6,7-dihydro-pyrimido[6,1-a]isoquinolin-4-one], the figure is 100 to 500 nM.
With `O=c1nc(OCC2CCCO2)cc2n1CCc1cc(OCc3ccccc3)ccc1-2` (stereo not shown) [compound 7, 9-benzyloxy-2-(tetrahydro-furan-2-ylmethoxy)-6,7-dihydro-pyrimido[6,1-a]isoquinolin-4-one], the IC50 was in the range of 0.01 to 100 nM.
Next, `CCN(CC)CC#Cc1ccc2c(c1)CCn1c-2cc(OCC2COc3ncccc3O2)nc1=O` (stereo not shown) [compound 177, 9-(3-diethylamino-prop-1-ynyl)-2-(2,3-dihydro-[1,4]dioxino[2,3-b]pyridin-2-ylmethoxy)-6,7-dihydro-pyrimido[6,1-a]isoquinolin-4-one]: 100 to 500 nM; `CC(C)(C)c1nc(COc2ccc3c(c2)CCn2c-3cc(OCC3CCCO3)nc2=O)no1` (stereo not shown) [compound 87, 9-(5-tert-butyl-[1,2,4]oxadiazol-3-ylmethoxy)-2-(tetrahydro-furan-2-ylmethoxy)-6,7-dihydro-pyrimido[6,1-a]isoquinolin-4-one]: 0.01 to 100 nM.
As for `CCCCOc1ccc2c(c1)CCn1c-2cc(OCC2CCCO2)nc1=O` (stereo not shown) [compound 10, 9-butoxy-2-(tetrahydro-furan-2-ylmethoxy)-6,7-dihydro-pyrimido[6,1-a]isoquinolin-4-one], the figure is 100 to 500 nM; as for `CCOC(=O)c1ccc(COc2ccc3c(c2)CCn2c-3cc(OCC3COc4ccccc4O3)nc2=O)o1` (stereo not shown) [compound 85, 5-[2-(2,3-dihydro-benzo[1,4]dioxin-2-ylmethoxy)-4-oxo-6,7-dihydro-4H-pyrimido[6,1-a]isoquinolin-9-yloxymethyl]-furan-2-carboxylic acid ethyl ester], 0.01 to 100 nM.
In turn, `O=c1nc(OCC2CCCO2)cc2n1CCc1cc(OCCc3ccccc3)ccc1-2` (stereo not shown) [compound 12, 9-phenethyloxy-2-(tetrahydro-furan-2-ylmethoxy)-6,7-dihydro-pyrimido[6,1-a]isoquinolin-4-one] registered an IC50 of 100 to 500 nM.
As for `O=C(COc1ccc2c(c1)CCn1c-2cc(OCC2CCCO2)nc1=O)Nc1ccccc1` (stereo not shown) [compound 63, 2-[4-oxo-2-(tetrahydro-furan-2-ylmethoxy)-6,7-dihydro-4H-pyrimido[6,1-a]isoquinolin-9-yloxy]-N-phenyl-acetamide], the figure is 0.01 to 100 nM; as for `O=c1nc(OCC2CCCO2)cc2n1CCc1cc(OCc3nnnn3C3CC3)ccc1-2` (stereo not shown) [compound 58, 9-(1-cyclopropyl-1H-tetrazol-5-ylmethoxy)-2-(tetrahydro-furan-2-ylmethoxy)-6,7-dihydro-pyrimido[6,1-a]isoquinolin-4-one], 100 to 500 nM; as for `O=c1nc(OCC2COc3ncccc3O2)cc2n1CCc1cc(OCc3noc(C4CC4)n3)ccc1-2` (stereo not shown) [compound 156, 9-(5-cyclopropyl-[1,2,4]oxadiazol-3-ylmethoxy)-2-(2,3-dihydro-[1,4]dioxino[2,3-b]pyridin-2-ylmethoxy)-6,7-dihydro-pyrimido[6,1-a]isoquinolin-4-one], 0.01 to 100 nM.
On to `O=c1nc(OCC2COc3ncccc3O2)cc2n1CCc1cc(-c3ccoc3)ccc1-2` (stereo not shown) [compound 148, 2-(2,3-dihydro-[1,4]dioxino[2,3-b]pyridin-2-ylmethoxy)-9-furan-3-yl-6,7-dihydro-pyrimido[6,1-a]isoquinolin-4-one], for which the IC50 is 0.01 to 100 nM.
